Reference: US9023320B2, “Method of producing a composition, composition and its use” (GE Healthcare AS, priority 2004, dated 2015)

What was measured:
[1] = test system: R3230AC rat mammary adenocarcinoma; assay: Tumour imaging using hyperpolarised 13C-pyruvate as imaging agent (13C-MR imaging of tumour-bearing rats); format: in vivo
Description: R3230AC is a rat mammary adenocarcinoma that can be maintained in female Fischer 344 rats. To establish the animal tumour model, a frozen vial of R32030 cells containing RPMI 1640, 10% FBS and 10% DMSO was rapidly thawed in 37° C. Thereafter, the cell solution was transferred to FBS and increasing volumes of RPMI 1640 were added. Finally, the cell suspension was transferred to a 25 cm^2growth flask and put into an incubator at 37° C., 5% CO2. Growth media were changed every other day. At the day of rat infection, removal of cells was carried out either by mechanical force or by means of trypsin. Cells were washed using phosphate buffer lacking calcium and magnesium. Trypsin (0.05% trypsin in 0.02% EDTA) was added for 2-5 min. Then, 5 ml FBS was added and the cells were transferred into a beaker containing RPMI 1640 with FCS and antibiotics (100 IU/ml penicillin, 100 IU/ml streptomycin and 2.5 µg/ml amphotericin […]). The cell solution was centrifugated and the cell pellet was resuspended in 20 ml RPMI with FBS and antibiotics, centrifugation and resuspension was repeated. The cells were then aliquoted to vials containing 4×10^6 cells/ml RPMI 1640. To obtain donor tumours, female Fischer 344 rats (Charles River, 180-200 g) were anaesthetised and 0.3 ml of the cell suspension was subcutaneously injected in the inguinal region on both sides. 15 and 22 days later, pieces of tumour were prepared as described in F. A. Burgener et al., Invest Radiol 2216 (1987), 472-478; S. Saini et al., J. Magn. Reson, 129/1 (1997), 35-43). Two incisions were made on the ventral abdomen of recipient female Fischer rats. A tumour piece was inserted into each pocket and the incisions were closed. Rats were brought to imaging 12-14 days after tumour engrafting.
Weighed rats were anaesthetised using isoflurane (2-3%) and kept on a heated table to ensure a body temperature of about 37° C. A catheter was introduced into the tail vein and into the arteria carotis communis sinistra. The rats were transported to the MR machine and placed on a home-built pad that was heated to approx. 37° C. by means of circulating FC-104 Fluorinert. This liquid will not give rise to background signals in ^1H- and ^13C-MR imaging. Anaesthesia was continued by means of 1-2% isoflurane delivered via a long tube to an open-breathing system at a rate of 0.4 L/min. The arterial catheter was connected via a T-tube to a pressure recorder and a pump delivering saline (rate […]) to prevent catheter clotting. Rats were positioned in a rat MR coil (Rapid Biomedical, Germany) and imaging using a standard proton MR imaging sequence to get anatomical information and to determine the location of the tumour.
Based on the proton frequency found by the MR system the MR frequency for ^13C1-alanine was calculated according to the following equation: Frequency ^13C1-alanine=0.25144×[(system frequency proton×1.00021)−0.000397708]
The frequency calculated positioned the MR signal arising from ^13C1-alanine on resonance with ^13C1-lactate on the left and ^13C1-pyruvate resonating on the right of ^13C1-alanine. An unlocalised MR spectroscopy sequence was run to ensure that the ^13C-MR coil and the system MR frequency had been set up correctly. The ^13C-image location was positioned to cover the tumour (slice thickness 10 mm, in plane pixel size 5×5 mm^2). In the reconstruction phase, the image data was zero-filled to result in 2.5×2.5×10 mm^3 resolution. ^13C1-pyruvate in TRIS buffer (90 mM) was injected in a dose of 10 ml/kg during a period of 12 s with a minimum volume of 2 ml into the tail vein and 30 s after the start of the injection (i.e. 18 s after finishing the injection), the chemical shift ^13C-MR sequence was started. 5.4 Analysis of the MR Imaging Data
In the reconstruction phase, the matrix was zero-filled to 32×32, a mathematical operation that helps to improve the spatial resolution. […]

[2] = DNP polarisation of 13C1-pyruvic acid, solid-state 13C-NMR DNP enhancement; format: physicochemical; conditions: 20 mM Tris(8-carboxy-2,2,6,6-tetra(hydroxyethoxy)methyl-benzo[1,2-d:4,5-d']bis(1,3)dithiole-4-yl)methyl sodium salt; 1.2 K, 3.35 T, 93.950 GHz; from thermal equilibrium and enhanced NMR signal
Description: A 20 mM solution was prepared by dissolving Tris(8-carboxy-2,2,6,6-tetra(hydroxyethoxy)methyl-benzo[1,2-d:4,5-d′]-bis-(1,3)-dithiole-4-yl)methyl sodium salt in ^13C1-pyruvic acid (83.1 mg). The sample was mixed to homogeneity, placed in a sample cup and inserted in the DNP polariser. The sample was polarised under DNP conditions at 1.2 K in a 3.35 T magnetic field under irradiation with microwave (93.950 GHz). The ^13C-NMR signal from the sample was acquired using a Varian Inova-200 NMR spectrometer. The DNP enhancement was calculated from a measurement of the thermal equilibrium ^13C-NMR signal and the enhanced NMR signal. 16% ^13C polarisation was obtained.

[3] = rat, R3230AC tumours, 90 mM in TRIS, 10 ml/kg i.v. tail vein, imaging 30 s after start of injection

pH ([1]; injected solution, mean ±SD) | average polarisation at the time of injection ([1]; mean ±SD, solution in TRIS buffer injected into rats) | 13C polarisation [2] | SMILES | overall rate of success ([1]; discrimination of tumour and healthy tissue, 26 tumours in 17 rats) | metabolic contrast in the tumour area, lactate signal [1, 3] | metabolic contrast in the tumour area, lactate signal, alanine corrected [1, 3] | metabolic contrast in the tumour area, lactate signal, pyruvate corrected [1, 3]
8.08±0.14 | 21.2±2.9% | – | CC(=O)[13C](=O)[O-].[Na+] [^13C1-pyruvate, sodium ^13C1-pyruvate] | 100% | 24 out of 26 | 26 out of 26 | 26 out of 26
– | – | 16% | CC(=O)[13C](=O)O [^13C1-pyruvic acid] | – | – | – | –
